Here are results for four compounds from ChEMBL document CHEMBL1144704, “Phloroglucinols with prooxidant activity from Garcinia subelliptica” (J Nat Prod, 2008).

Calls of active or inactive are those of the source. No cut-off for these calls is given here.

The subject of assay [1] is Escherichia coli. In words: Induction of Cu(2)-mediated pBR322 DNA cleavage assessed as conversion of supercoiled to relaxed open circle at 300 uM by agarose gel electrophoresis in presence of catalase.
Assay [2] relates to Escherichia coli. In words: Induction of Cu(2)-mediated pBR322 DNA cleavage assessed as conversion of supercoiled to relaxed open circle at 300 uM by agarose gel electrophoresis in presence of potassium iodide.
In assay [3] the test system is Escherichia coli. In words: Induction of Cu(2)-mediated pBR322 DNA cleavage assessed as conversion of supercoiled to relaxed open circle at 300 uM by agarose gel electrophoresis in presence of superoxide dismutase.
In assay [4] the test system is Escherichia coli. Nature of the assay: Induction of Cu(2)-mediated pBR322 DNA cleavage assessed as conversion of supercoiled to relaxed open circle at 50 to 300 uM by agarose gel electrophoresis.

`C=C(C)CC[C@@H](C[C@H]1C[C@@]2(CC=C(C)C)C(=O)C(CC=C(C)C)=C(O)[C@@](C(=O)c3ccc(O)c(O)c3)(C2=O)C1(C)C)C(=C)C` (stereo in doubt; 2): the outcome in the assay with Escherichia coli [1], with Escherichia coli [2] and with Escherichia coli [3] was Active.

With `CC(C)=CC[C@]12C[C@H](O)C(C)(C)O[C@@H](C(C)(C)O)C[C@@](O)(C(=O)C(C(=O)C(C)C)=C1O)C2=O`, the outcome in the assay on Escherichia coli [4], in the assay on Escherichia coli [1], with Escherichia coli [2] and with Escherichia coli [3] was Active.

As to `C=C(C)CC[C@@H](C[C@@H]1C[C@]2(CC=C(C)C)C(=O)[C@@](C(=O)c3ccc(O)c(O)c3)(C(=O)C3=C2O[C@@H](C(C)(C)O)C3)C1(C)C)C(=C)C`, the outcome with Escherichia coli [4] was inactive.

For `C=C(C)CC[C@@H](C[C@H]1C[C@@]2(CC=C(C)C)C(=O)C(CC=C(C)C)=C(O)[C@@](C(=O)c3ccc(O)c(O)c3)(C2=O)C1(C)C)C(=C)C` (stereo in doubt; 2a), the outcome in the assay with Escherichia coli [1], with Escherichia coli [2] and in the assay with Escherichia coli [3] was Active.
